Data from patent US20250340543A1, “GPR84 ANTAGONISTS AND USES THEREOF” (Liminal BioSciences Limited, priority 2021, published 2025).

Target: GPR84 (Homo sapiens (Human), UniProt Q9NQS5)
Experiment: Gai biosensor BRET assay (GPR84-mediated activation of Gai, antagonist mode against agonist ZQ-16)
Assay type: cell-based
Details: for IC50: HEK293 cells, 200 nmol/L GPR84 agonist ZQ-16, read-out: hGPR84 IC50; for inhibition at 2 µM: compound tested at 2 μM (concentration code A); for inhibition at 10 µM: compound tested at 10 μM (concentration code D)
How it was run: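 Transiently transfected HEK293 cells expressing GPR84, Gαi2-Rluc8, GFP10-Gγ2 and Gβ1, in Tyrode's buffer pH 7.5. Compounds pre-incubated 5 min at 37° C, then 200 nmol/L ZQ-16 for 5 min at room temperature; BRET² with coelenterazine 400A, ligand-promoted net BRET after background and vehicle subtraction.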

GPR84, sequence (Q9NQS5 whole entry): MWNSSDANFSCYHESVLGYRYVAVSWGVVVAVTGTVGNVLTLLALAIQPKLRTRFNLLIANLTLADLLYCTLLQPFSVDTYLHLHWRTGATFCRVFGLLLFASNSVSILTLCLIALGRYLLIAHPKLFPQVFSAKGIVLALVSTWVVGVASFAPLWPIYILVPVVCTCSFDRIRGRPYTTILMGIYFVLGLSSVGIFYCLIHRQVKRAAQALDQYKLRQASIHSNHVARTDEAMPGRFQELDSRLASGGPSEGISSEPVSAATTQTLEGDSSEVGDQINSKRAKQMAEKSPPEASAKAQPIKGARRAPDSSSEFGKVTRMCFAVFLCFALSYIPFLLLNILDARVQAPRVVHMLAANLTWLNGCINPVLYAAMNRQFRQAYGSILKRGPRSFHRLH

Compound	inhibition at 10 µM	also measured
Cc1cc(OCc2cnccn2)cc(=O)n1[C@H](C)c1ccc(C#CC2CC2)cc1 [Compound I-257]	–	IC50: < 5 µM; inhibition at 2 µM: > 75%
Cc1cc(OCc2ccncn2)cc(=O)n1[C@H](C)c1ccc(C#CC2CC2)cc1 [Compound I-258]	–	IC50: < 5 µM; inhibition at 2 µM: > 75%
Cc1cc(OCc2ncccn2)cc(=O)n1[C@H](C)c1ccc(C#CCN2CC(C)(C)C2)cc1 [Compound I-259]	< 25%	–
Cc1cc(OCc2ncccn2)cc(=O)n1Cc1cccc(OCC(F)(F)F)c1 [Compound I-262]	< 25%	–
Cc1cc(OCc2ncccn2)cc(=O)n1[C@H](C)c1ccc(C#CCNCc2ccccc2)cc1 [Compound I-263]	< 25%	–
Cc1cc(OCc2ncccn2)cc(=O)n1[C@H](C)c1ccc(C#CCN(C)Cc2ccccc2)cc1 [Compound I-264]	25 to 50%	–
Cc1cc(OCc2ncccn2)cc(=O)n1[C@H](C)c1ccc(C#CCNC(=O)OC(C)C)cc1 [Compound I-269]	< 25%	–
Cc1cc(OCc2cccnc2)cc(=O)n1[C@H](C)c1ccc(C#CC2CC2)cc1 [Compound I-272]	–	IC50: < 5 µM; inhibition at 2 µM: > 75%
Cc1cc(OCC2CCCCO2)cc(=O)n1C(C)c1ccc(OCC(F)(F)F)cc1 (stereo not shown) [Compound I-274]	< 25%	–
Cc1cc(OCc2ncccn2)cc(=O)n1C(C)c1ccc(OCC(F)(F)F)cc1 (stereo not shown) [Compound I-275]	< 25%	–
Cc1cc(OCc2ncccc2F)cc(=O)n1[C@H](C)c1ccc(C#CC2CC2)cc1 [Compound I-278]	–	IC50: < 5 µM; inhibition at 2 µM: > 75%
Cc1cc(OCc2cncnc2)cc(=O)n1[C@H](C)c1ccc(C#CC2CC2)cc1 [Compound I-283]	–	IC50: < 5 µM; inhibition at 2 µM: > 75%
Cc1cc(OCc2cocn2)cc(=O)n1[C@H](C)c1ccc(C#CC2CC2)cc1 [Compound I-284]	–	inhibition at 2 µM: > 75%
Cc1cc(C#CC2CC2)cnc1C(C)n1ccc(OC[C@@H]2COCCO2)cc1=O (stereo partly shown) [Compound I-285]	< 25%	–
CC(c1cc(C#CC2CC2)ccn1)n1ccc(OC[C@@H]2COCCO2)cc1=O (stereo partly shown) [Compound I-286]	< 25%	–
Cc1ccc(C#CC2CC2)cc1Cn1c(C)cc(OCc2ncccn2)cc1=O [Compound I-289]	–	inhibition at 2 µM: < 25%
Cc1cc(OCc2ccccn2)cc(=O)n1[C@H](C)c1ccc(C#CC2CC2)cc1 [Compound I-290]	–	IC50: < 5 µM; inhibition at 2 µM: > 75%
Cc1cc(OCc2cccnn2)cc(=O)n1[C@H](C)c1ccc(C#CC2CC2)cc1 [Compound I-291]	–	IC50: < 5 µM; inhibition at 2 µM: > 75%
Cc1cc(OCc2nccs2)cc(=O)n1[C@H](C)c1ccc(C#CC2CC2)cc1 [Compound I-293]	–	IC50: < 5 µM; inhibition at 2 µM: > 75%
Cc1cc(OCc2cscn2)cc(=O)n1[C@H](C)c1ccc(C#CC2CC2)cc1 [Compound I-294]	> 75%	IC50: < 5 µM
Cc1cc(OCn2cccn2)cc(=O)n1[C@H](C)c1ccc(C#CC2CC2)cc1 [Compound I-295]	> 75%	–
Cc1cc(OCc2ncco2)cc(=O)n1[C@H](C)c1ccc(C#CC2CC2)cc1 [Compound I-296]	> 75%	IC50: < 5 µM
Cc1cc(OCc2ccccc2Cl)cc(=O)n1[C@H](C)c1ccc(C#CC2CC2)cc1 [Compound I-297]	< 25%	–
Cc1cc(OCc2ncccn2)cc(=O)n1[C@H](C)c1ccc(C#CC(C)C)cc1 [Compound I-298]	50 to 75%	–
Cc1ccc([C@@H](C)n2c(C)cc(OCc3ncccn3)cc2=O)cc1 [Compound I-299]	< 25%	–

Compound	inhibition at 10 µM	also measured
Cc1cc(OCc2ncccn2)cc(=O)n1[C@H](C)c1ccccc1 [Compound I-300]	< 25%	–
COc1ccc([C@@H](C)n2c(C)cc(OCc3ncccn3)cc2=O)cc1 [Compound I-301]	< 25%	–
Cc1cc(OCc2nccn2C)cc(=O)n1[C@H](C)c1ccc(C#CC2CC2)cc1 [Compound I-303]	–	IC50: < 5 µM; inhibition at 2 µM: > 75%
Cc1cc(OCc2ncccn2)cc(=O)n1[C@H](C)c1ccc(Cl)cc1 [Compound I-304]	< 25%	–
Cc1cc(OCc2cccnc2Cl)cc(=O)n1[C@H](C)c1ccc(C#CC2CC2)cc1 [Compound I-305]	> 75%	–
Cc1cc(OCc2cc(Cl)ccn2)cc(=O)n1[C@H](C)c1ccc(C#CC2CC2)cc1 [Compound I-306]	25 to 50%	–
Cc1cc(OCc2ncccn2)cc(=O)n1C(C)c1ccc(Oc2ccccc2)cc1 (stereo not shown) [Compound I-307]	< 25%	–
Cc1cc(OCn2ccnc2)cc(=O)n1[C@H](C)c1ccc(C#CC2CC2)cc1 [Compound I-308]	> 75%	–
CCCCCc1ccc([C@@H](C)n2c(C)cc(OCc3ncccn3)cc2=O)cc1 [Compound I-309]	< 25%	–
Cc1cc(OCc2ncccn2)cc(=O)n1[C@H](C)c1ccc(CCC2CC2)cc1 [Compound I-310]	25 to 50%	–
Cc1cc(OCc2cncs2)cc(=O)n1[C@H](C)c1ccc(C#CC2CC2)cc1 [Compound I-311]	–	inhibition at 2 µM: > 75%
Cc1cc(OCc2ncccn2)cc(=O)n1C(C)c1ccc(C#CCNc2ccccc2)cc1 (stereo not shown) [Compound I-312]	< 25%	–
Cc1cc(OCc2cn(C)cn2)cc(=O)n1[C@H](C)c1ccc(C#CC2CC2)cc1 [Compound I-313]	> 75%	–
Cc1cc(OCc2cnccc2Cl)cc(=O)n1[C@H](C)c1ccc(C#CC2CC2)cc1 [Compound I-315]	–	IC50: < 5 µM; inhibition at 2 µM: > 75%
CNC(=O)c1ccc([C@@H](C)n2c(C)cc(OCc3ncccn3)cc2=O)cc1 [Compound I-316]	< 25%	–
COc1cccnc1COc1cc(C)n([C@H](C)c2ccc(C#CC3CC3)cc2)c(=O)c1 [Compound I-318]	> 75%	IC50: < 5 µM
Cc1cc(OCc2ncccn2)cc(=O)n1[C@H](C)c1ccc(C2CC2)cc1 [Compound I-322]	< 25%	–
Cc1cc(OCc2cnc(C3CC3)cn2)cc(=O)n1[C@H](C)c1ccc(C#CC2CC2)cc1 [Compound I-323]	> 75%	–
Cc1cc(OCc2ncccn2)cc(=O)n1[C@@H](C)c1ccc(C#CC2CC2)c(F)c1 [Compound I-326]	–	IC50: 10 to 15 µM; inhibition at 1 µM (compound tested at 1 μM (concentration code A*)): 25 to 50%
Cc1cc(OCc2ncccc2F)cc(=O)n1C(C)c1ccc(C#CC2CC2)nc1 (stereo not shown) [Compound I-327]	50 to 75%	–
Cc1cc(OCc2ncccn2)cc(=O)n1[C@H](C)c1ccc(C#Cc2ccccc2)cc1 [Compound I-329]	< 25%	–
CCCOc1ccc(C(C)n2c(C)cc(OCc3ncccn3)cc2=O)cc1 (stereo not shown) [Compound I-343]	< 25%	–
Cc1cc(OCc2ncccn2)cc(=O)n1[C@H](C)c1ccc(-c2ccccc2)cc1 [Compound I-344]	< 25%	–
CCCCCCOc1ccc(C(C)n2c(C)cc(OCc3ncccn3)cc2=O)cc1 (stereo not shown) [Compound I-345]	< 25%	–
Cc1cc(OCc2ncccn2)cc(=O)n1[C@H](C)c1ccc(-c2cnc(C3CC3)nc2)cc1 [Compound I-347]	< 25%	–

Continued, in another order:

inhibition at 10 µM	Compound	also measured
> 75%	Cc1cc(OCc2ncc(Cl)cn2)cc(=O)n1[C@H](C)c1ccc(C#CC2CC2)cc1 [Compound I-260]	–
< 25%	Cc1cc(OCc2ncccn2)cc(=O)n1C(C)c1cccc(C#CC2CC2)c1 (stereo not shown) [Compound I-261]	–
< 25%	Cc1cc(OCc2ncccn2)cc(=O)n1C(C)c1cc(C#CC2CC2)cs1 (stereo not shown) [Compound I-265]	–
< 25%	Cc1cc(OCc2ncccn2)cc(=O)n1Cc1cc(C#CC2CC2)ccn1 [Compound I-266]	–
< 25%	Cc1cc(OCc2ncccn2)cc(=O)n1Cc1cccc(C#CC2CC2)c1 [Compound I-267]	–
< 25%	Cc1cc(OCc2ncccn2)cc(=O)n1Cc1cc(C#CC2CC2)ccc1F [Compound I-268]	–
< 25%	Cc1cc(OCc2ncccn2)cc(=O)n1[C@H](C)c1ccc(C#CC2CC2)cc1F [Compound I-270]	–
< 25%	Cc1cc(OCc2ncccn2)cc(=O)n1Cc1cccc(N2CC(C)(C)C2)c1 [Compound I-271]	–
> 75%	Cc1cc(OCc2ncccn2)cc(=O)n1C(C)c1ccc(C#CC2CC2)c(F)c1 (stereo not shown) [Compound I-273]	IC50: < 5 µM
> 75%	Cc1cnc(COc2cc(C)n([C@H](C)c3ccc(C#CC4CC4)cc3)c(=O)c2)nc1 [Compound I-279]	–
< 25%	Cc1cc(OCc2ncccn2)cc(=O)n1Cc1cccc(C#CCNc2ccccc2)c1 [Compound I-280]	–
25 to 50%	Cc1cc(OCc2ncccn2)cc(=O)n1C(C)c1ccc(C#CC2CC2)nc1 (stereo not shown) [Compound I-287]	–
25 to 50%	Cc1cc(OCc2ncccn2)cc(=O)n1[C@H](C)c1ccc(C#CC2CC2)nc1 [Compound I-288]	–
25 to 50%	Cc1cc(OCc2ncccn2)cc(=O)n1C(C)c1ccc(C#CC2CC2)s1 (stereo not shown) [Compound I-292]	–
> 75%	Cc1cc(OCc2ncccn2)cc(=O)n1[C@H](C)c1ccc(C#CC2CCC2)cc1 [Compound I-314]	–
> 75%	CC[C@H](c1ccc(C#CC2CC2)cc1)n1c(C)cc(OCc2ncccn2)cc1=O [Compound I-317]	–
50 to 75%	Cc1cc(OCc2ncccn2)nc(=O)n1C(C)c1ccc(C#CC2CC2)cc1 (stereo not shown) [Compound I-320]	–
> 75%	CC(c1ccc(C#CC2CC2)cc1)n1c(Cl)cc(OCc2ncccn2)cc1=O (stereo not shown) [Compound I-321]	–
> 75%	Cc1cc(OCc2ncccn2)cc(=O)n1C(CC(F)(F)F)c1ccc(C#CC2CC2)cc1 (stereo not shown) [Compound I-324]	IC50: < 5 µM
> 75%	Cc1cc(OCc2ncccn2)cc(=O)n1[C@H](C)c1ccc(C#CC2CC2)c(F)c1 [Compound I-325]	IC50: < 5 µM
< 25%	Cc1cc(OCc2ncccn2)cc(=O)n1C(C)c1cnc(C#CC2CC2)nc1 (stereo not shown) [Compound I-340]	–
